Test results reported in US8569372B2, “Method for preventing or treating a disease, disorder or condition induced by retina ischemia” (priority 2011, dated 2013).

Assays:
[1] = system: VEGF mRNA; test: Real-time PCR of retinal mRNA after ischaemia/reperfusion: VEGF; format: in vivo, Wistar rats; details: 100 μM SAC pre-treatment, 24 hours after I/R; control 0.36±0.07, vehicle 1.10±0.20; n=6
Experimental: (§1) The rats (200-250 g) were anaesthetized and placed in a stereotaxic frame. The anterior chamber of one eye was cannulated with a 30-gauge needle connected to a 0.9% saline reservoir; this caused a high IOP (HIOP) of 120 mmHg for 60 minutes. Eye fundus whitening and a low ERG response confirmed induction of an ischaemic insult. A sham procedure was carried out on the controls. Drug administration involved the pre-administration (15-minute before 60-minute HIOP induced retinal ischaemia) of SAC (25, 50, 100 μM) or vehicle (saline; control). The ischemic eye of each test rat was treated with or without a single intravitreous injection of 5 μl of the test compound. […] The levels of Thy-1, HIF-1 Alpha, VEGF and MMP-9 mRNAs present in the retinas were determined using a real-time PCR technique. […] Relative quantification (a comparative method) was performed using the house keeping gene Beta-actin as the internal standard. This process allows the normalized quantification of the mRNA target (Ct) and takes into account the differences in the amount of total RNA added to each reaction (ΔCt). The relative HIF-1 Alpha/VEGF/MMP-9 expression changes were calculated as fold changes relative to the control with respect to the calibrator (ΔΔCt), which was represented by the control retina. […] The data obtained for each treatment were pooled, and a total percentage change relative to the control was calculated. […]

[2] = system: MMP-9 mRNA; test: Real-time PCR of retinal mRNA after ischaemia/reperfusion: MMP-9; format: in vivo, Wistar rats; details: 100 μM SAC pre-treatment, 24 hours after I/R; control 0.46±0.15, vehicle 1.97±0.38; n=6
Experimental: as §1

[3] = system: HIF-1 Alpha; test: ELISA of HIF-1 Alpha protein in RGC-5 cells under H2O2 oxidative stress; format: cell-based; details: 100 μM SAC 15-minute pre-treatment, 500 μM H2O2 24 hours; control 1254.39±116.03, H2O2 1874.72±133.46; n=6
Experimental: (§2) In the enzyme-linked immunosorbent assay (ELISA), the cells (2.5×10^4 in each well) were plated into 96-well plates. Each well contains 200 μl of DMEM (control) without or with H2O2. Next, the cells were incubated at 37° C. for 1 day and then shifted to serum free medium for the following day. In order to stimulate oxidative stress, 500 μM H2O2 (Sigma-Aldrich 18304/k0250, St Louis, Mo., USA) was then added for 24 hours as described elsewhere. Depending on the experimental protocol, SAC or vehicle was added to some samples 15 minutes before adding H2O2. […] Total protein was determined using a bicinchoninic acid protein kit (Thermo Fisher Scientific Inc., IL, U.S.A.). The HIF-1 Alpha/VEGF/MMP-9 levels in the cells/medium were measured using various ELISA kits, namely HIF-1 Alpha (Uscn Life Science Inc., Wuhan 430056, China); VEGF-A (BMS277/2, Bender […], Austria) and MMP-9 Duoset (D911, R&D, Minneapolis, Minn., U.S.A.). […] The HIF-1 Alpha/VEGF/MMP-9 concentration of each sample was determined by constructing a standard curve using 100 μl of sample diluent containing various amounts of HIF-1 Alpha/VEGF/MMP-9 pure protein (0-1000 pg/ml). […] The absorbance (optical intensity, O.D.) was detected at 450 nm by spectrophotometer (ELx800, Biotek, Winooski, Vt., U.S.A.). […]

[4] = system: VEGF; test: ELISA of VEGF protein in RGC-5 cells under H2O2 oxidative stress; format: cell-based; details: 100 μM SAC 15-minute pre-treatment, 500 μM H2O2 24 hours; control 91.91±21.72, H2O2 250.55±39.63; n=6
Experimental: as §2

Q: What does the source list for `C=CCSC[C@H](N)C(=O)O` [SAC, S-allyl L-cysteine]?
A: VEGF mRNA ratio in the retina [1]: 0.50±0.06; MMP-9 mRNA ratio in the retina [2]: 0.41±0.15; HIF-1 Alpha protein level (ELISA) [3]: 1256.47 ± 157.62 pg/mL; VEGF protein level (ELISA) [4]: 121.61 ± 12.54 pg/mL
